From EP0726261A1, “Herbidical 1,2,4 thiadiazoles” (American Cyanamid Company, priority 1995, dated 1996)

Key:
Type in all cases: in vivo
[1] = test system: Setaria viridis; assay: Preemergence herbicidal activity (Example 67); set-up: herbicide rating, SETVI: scale not given here; conditions: pre, 800 g/ha; for herbicide rating, SETVI: rated about 1-3 weeks after treatment
Outline: (§1)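 Preemergence application: the soil surface is sprayed pneumatically at 3 bar, 400 L/ha, dose 800g/ha. Formulation is acetone with 0.5% alkylphenol/ethylene oxide condensate, then water. Scoring follows a rating scale about 1-3 weeks after spraying.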

[2] = test system: Galium aparine; assay: Postemergence herbicidal activity (Example 67); conditions: pos, 800 g/ha; for herbicide rating, GALAP: rated after 10-21 days
Outline: (§2)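 Greenhouse plants, 3-6 weeks old, in horticultural substrate/loamy sand (1:3) received a foliar spray at 800g/ha. Herbicidal effect was scored on a rating scale 10-21 days later.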

[3] = test system: Abutilon theophrasti; assay: Postemergence herbicidal activity (Example 67); conditions: pos, 800 g/ha; for herbicide rating, ABUTH: rated after 10-21 days
Outline: as §2

[4] = test system: Zea mays; assay: Postemergence herbicidal activity (Example 67); conditions: pos, 800 g/ha; for herbicide rating, ZEAMX: rated after 10-21 days
Outline: as §2

[5] = test system: Hordeum vulgare; assay: Postemergence herbicidal activity (Example 67); conditions: pos, 800 g/ha; for herbicide rating, HORVW: rated after 10-21 days
Outline: as §2

[6] = test system: Amaranthus retroflexus; assay: Postemergence herbicidal activity (Example 67); conditions: pos, 800 g/ha; for herbicide rating, AMARE: rated after 10-21 days
Outline: as §2

[7] = test system: Alopecurus myosuroides; assay: Postemergence herbicidal activity (Example 67); conditions: pos, 800 g/ha; for herbicide rating, ALOMY: rated after 10-21 days
Outline: as §2

[8] = test system: Veronica persica; assay: Postemergence herbicidal activity (Example 67); conditions: pos, 800 g/ha; for herbicide rating, VERPE: rated after 10-21 days
Outline: as §2

[9] = test system: Triticum aestivum; assay: Postemergence herbicidal activity (Example 67); conditions: pos, 800 g/ha; for herbicide rating, TRZAW: rated after 10-21 days
Outline: as §2

[10] = test system: Chenopodium album; assay: Postemergence herbicidal activity (Example 67); conditions: pos, 800 g/ha; for herbicide rating, CHEAL: rated after 10-21 days
Outline: as §2

[11] = test system: Setaria viridis; assay: Postemergence herbicidal activity (Example 67); conditions: pos, 800 g/ha; for herbicide rating, SETVI: rated after 10-21 days
Outline: as §2

[12] = test system: Ipomoea hederacea; assay: Postemergence herbicidal activity (Example 67); conditions: pos, 800 g/ha; for herbicide rating, IPOHE: rated after 10-21 days
Outline: as §2

[13] = test system: Helianthus annuus; assay: Postemergence herbicidal activity (Example 67); conditions: pos, 800 g/ha; for herbicide rating, HELAN: rated after 10-21 days
Outline: as §2

[14] = test system: Galium aparine; assay: Preemergence herbicidal activity (Example 67); conditions: pre, 800 g/ha; for herbicide rating, GALAP: rated about 1-3 weeks after treatment
Outline: as §1

[15] = test system: Abutilon theophrasti; assay: Preemergence herbicidal activity (Example 67); conditions: pre, 800 g/ha; for herbicide rating, ABUTH: rated about 1-3 weeks after treatment
Outline: as §1

[16] = test system: Zea mays; assay: Preemergence herbicidal activity (Example 67); conditions: pre, 800 g/ha; for herbicide rating, ZEAMX: rated about 1-3 weeks after treatment
Outline: as §1

[17] = test system: Amaranthus retroflexus; assay: Preemergence herbicidal activity (Example 67); conditions: pre, 800 g/ha; for herbicide rating, AMARE: rated about 1-3 weeks after treatment
Outline: as §1

[18] = test system: Veronica persica; assay: Preemergence herbicidal activity (Example 67); conditions: pre, 800 g/ha; for herbicide rating, VERPE: rated about 1-3 weeks after treatment
Outline: as §1

[19] = test system: Chenopodium album; assay: Preemergence herbicidal activity (Example 67); conditions: pre, 800 g/ha; for herbicide rating, CHEAL: rated about 1-3 weeks after treatment
Outline: as §1

[20] = test system: Ipomoea hederacea; assay: Preemergence herbicidal activity (Example 67); conditions: pre, 800 g/ha; for herbicide rating, IPOHE: rated about 1-3 weeks after treatment
Outline: as §1

[21] = test system: Helianthus annuus; assay: Preemergence herbicidal activity (Example 67); conditions: pre, 800 g/ha; for herbicide rating, HELAN: rated about 1-3 weeks after treatment
Outline: as §1

[22] = test system: Triticum aestivum; assay: Preemergence herbicidal activity (Example 67); set-up: herbicide rating, TRZAW: scale not given here; conditions: pre, 800 g/ha; for herbicide rating, TRZAW: rated about 1-3 weeks after treatment
Outline: as §1

[23] = test system: Alopecurus myosuroides; assay: Preemergence herbicidal activity (Example 67); set-up: herbicide rating, ALOMY: scale not given here; conditions: pre, 800 g/ha; for herbicide rating, ALOMY: rated about 1-3 weeks after treatment
Outline: as §1

[24] = test system: Hordeum vulgare; assay: Preemergence herbicidal activity (Example 67); set-up: herbicide rating, HORVW: scale not given here; conditions: pre, 800 g/ha; for herbicide rating, HORVW: rated about 1-3 weeks after treatment
Outline: as §1

COCCc1nsc(C(=O)N[C@@H](C)c2ccccc2)n1 [Example 34]
herbicide rating, SETVI [1]: 0
herbicide rating, GALAP [2]: 1 (1-5%)
herbicide rating, ABUTH [3]: 1 (1-5%)
herbicide rating, ZEAMX [4]: 0
herbicide rating, HORVW [5]: 0
herbicide rating, AMARE [6]: 0
herbicide rating, ALOMY [7]: 3 (16-29%)
herbicide rating, VERPE [8]: 2 (6-15%)
herbicide rating, TRZAW [9]: 3 (16-29%)
herbicide rating, CHEAL [10]: 2 (6-15%)
herbicide rating, SETVI [11]: 3 (16-29%)
herbicide rating, IPOHE [12]: 4 (30-44%)
herbicide rating, HELAN [13]: 2 (6-15%)
herbicide rating, GALAP [14]: 0
herbicide rating, ABUTH [15]: 0
herbicide rating, ZEAMX [16]: 0
herbicide rating, AMARE [17]: 0
herbicide rating, VERPE [18]: 3 (16-29%)
herbicide rating, CHEAL [19]: 0
herbicide rating, IPOHE [20]: 0
herbicide rating, HELAN [21]: 0
herbicide rating, TRZAW [22]: 0
herbicide rating, ALOMY [23]: 0
herbicide rating, HORVW [24]: 0

O=C(Nc1ccccc1)c1nsc(-c2cccc(C(F)(F)F)c2)n1 [Example 64]
SET VI rating [1]: 2 (6-15%)
GAL AP rating [2]: 0
ABU TH rating [3]: 1 (1-5%)
ZEA MX rating [4]: 1 (1-5%)
HOR VW rating [5]: 1 (1-5%)
AMA RE rating [6]: 0
ALO MY rating [7]: 2 (6-15%)
VER PE rating [8]: 0
TRZ AW rating [9]: 2 (6-15%)
CHE AL rating [10]: 0
SET VI rating [11]: 4 (30-44%)
IPO HE rating [12]: 0
HEL AN rating [13]: 0
GAL AP rating [14]: 0
ABU TH rating [15]: 0
ZEA MX rating [16]: 0
AMA RE rating [17]: 0
VER PE rating [18]: 0
CHE AL rating [19]: 0
IPO HE rating [20]: 3 (16-29%)
HEL AN rating [21]: 0
TRZ AW rating [22]: 2 (6-15%)
ALO MY rating [23]: 0
HOR VW rating [24]: 0

COc1ccc(-c2nsc(C(=O)N[C@@H](C)c3ccccc3)n2)cc1 [Example 2, (S)-3-(4-Methoxyphenyl)-[1,2,4]thiadiazole-5-carboxylic acid (1-phenylethyl)amide]
herbicide rating, SETVI [1]: 0
herbicide rating, GALAP [2]: 0
herbicide rating, ABUTH [3]: 1 (1-5%)
herbicide rating, ZEAMX [4]: 1 (1-5%)
herbicide rating, HORVW [5]: 2 (6-15%)
herbicide rating, AMARE [6]: 0
herbicide rating, ALOMY [7]: 2 (6-15%)
herbicide rating, VERPE [8]: 0
herbicide rating, TRZAW [9]: 2 (6-15%)
herbicide rating, CHEAL [10]: 3 (16-29%)
herbicide rating, SETVI [11]: 5 (45-64%)
herbicide rating, IPOHE [12]: 2 (6-15%)
herbicide rating, HELAN [13]: 1 (1-5%)
herbicide rating, GALAP [14]: 0
herbicide rating, ABUTH [15]: 0
herbicide rating, ZEAMX [16]: 0
herbicide rating, AMARE [17]: 0
herbicide rating, VERPE [18]: 0
herbicide rating, CHEAL [19]: 0
herbicide rating, IPOHE [20]: 5 (45-64%)
herbicide rating, HELAN [21]: 0
herbicide rating, TRZAW [22]: 0
herbicide rating, ALOMY [23]: 0
herbicide rating, HORVW [24]: 0

COc1ccc(-c2nsc(C(=O)NC(C)c3ccc(C)s3)n2)cc1 (racemic) [Example 37]
herbicide rating, SETVI [1]: 0
herbicide rating, GALAP [2]: 0
herbicide rating, ABUTH [3]: 0
herbicide rating, ZEAMX [4]: 0
herbicide rating, HORVW [5]: 2 (6-15%)
herbicide rating, AMARE [6]: 0
herbicide rating, ALOMY [7]: 2 (6-15%)
herbicide rating, VERPE [8]: 0
herbicide rating, TRZAW [9]: 3 (16-29%)
herbicide rating, CHEAL [10]: 3 (16-29%)
herbicide rating, SETVI [11]: 4 (30-44%)
herbicide rating, IPOHE [12]: 1 (1-5%)
herbicide rating, HELAN [13]: 0
herbicide rating, GALAP [14]: 0
herbicide rating, ABUTH [15]: 0
herbicide rating, ZEAMX [16]: 0
herbicide rating, AMARE [17]: 0
herbicide rating, VERPE [18]: 0
herbicide rating, CHEAL [19]: 6 (65-79%)
herbicide rating, IPOHE [20]: 0
herbicide rating, HELAN [21]: 0
herbicide rating, TRZAW [22]: 0
herbicide rating, ALOMY [23]: 0
herbicide rating, HORVW [24]: 0
